According to ChEMBL document CHEMBL4765339, “Design, synthesis, and biological evaluation of 4-substituted-3,4-dihydrobenzo[h]quinoline-2,5,6(1H)-triones as NQO1-directed antitumor agents” (Eur J Med Chem, 2020):

How the values were obtained:
[1] = Selectivity index, ratio of GI50 for human A549 cells pretreated for 1 hr with NQO1 inhibitor, dicoumarol followed by incubation with compound for 48 hrs to GI50 for human A549 cells measured after 48 hrs by MTT assay; format: functional
MCF7 = assay: Cytotoxicity against NQO1-rich human MCF7 cells assessed as reduction in cell growth incubated for 48 hrs by MTT assay; format: functional
A549 = assay: Cytotoxicity against human A549 cells assessed as reduction in cell growth incubated for 48 hrs by MTT assay; format: functional
[2] = Cytotoxicity against human L02 cells assessed as reduction in cell growth incubated for 48 hrs by MTT assay; format: cell-based
HepG2 [3] = assay: Induction of apoptosis in human HepG2 cells assessed as early apoptotic cells at 1.1 uM incubated for 24 hrs by annexinV-FITC and PI staining based flow cytometry analysis (reference value: 2.65 %); format: functional
HepG2 [4] = assay: Induction of apoptosis in human HepG2 cells assessed as necrotic cells at 1.1 uM incubated for 24 hrs by annexinV-FITC and PI staining based flow cytometry analysis (reference value: 0.35 %); format: functional
HepG2 [5] = assay: Induction of apoptosis in human HepG2 cells assessed as viable cells at 4.4 uM incubated for 24 hrs by annexinV-FITC and PI staining based flow cytometry analysis (reference value: 94.73 %); format: functional; conditions: read-out: Activity
HepG2 [6] = assay: Induction of apoptosis in human HepG2 cells assessed as necrotic cells at 2.2 uM incubated for 24 hrs in presence of dicoumarol by annexinV-FITC and PI staining based flow cytometry analysis (reference value: 0.35 %); format: functional
HepG2 [7] = assay: Induction of ROS generation in human HepG2 cells at 5 uM by DCFH-DA staining based flow cytometry analysis; format: functional, cell-based; conditions: time 3-5 hrs, TDE = time-dependent effect
[8] = Toxicity in athymic nude mouse xenografted with human HepG2 cells assessed as effect on body weight at 10 to 20 mg/kg, iv administered once every 2 days for 19 days; format: organism-based; conditions: in vivo, 456 h, dose 10-20 mg/kg, time 19 day
[9] = biological target: NAD(P)H dehydrogenase [quinone] 1 (Homo sapiens) (UniProt P15559); assay: Activation of recombinant human C-terminal His-tagged NQO1 (1 to 274 residues) expressed in Escherichia coli assessed as cytochrome c reduction using menadione as substrate in presence of NADPH by spectrophotometry; conditions: filed as activator, dose 12.5-50 µM
HepG2 [10] = assay: Antitumor activity against human HepG2 cells xenografted in athymic nude mouse assessed as inhibition of tumor growth at 10 mg/kg, iv administered once every 2 days for 19 days by caliper analysis relative to control; format: functional; conditions: 456 h, time 19 day

With `COc1ccc(C2CC(=O)NC3=C2C(=O)C(=O)c2ccccc23)cc1O` (configuration not stated) as the molecule, how does the RatioGI50 [1] read?
The RatioGI50 was 2.

And the GI50 (MCF7)?
Its GI50 is 3.06 µM.

What about the GI50 (A549) of the same molecule?
Its GI50 is 3.13 µM.

What about the GI50 at 48 h [2] of the same molecule?
Its GI50 at 48 h is 4.36 µM.

And the Activity (HepG2 [3])?
Its Activity is 7.92%.

What about the Activity (HepG2 [4]) of the same molecule?
Its Activity is 0.77%.

And the viability at 4.4 µM (HepG2 [5])?
Its viability at 4.4 µM is 66.5%.

And the Activity (HepG2 [6])?
The Activity was 0.69%.

What about the Activity (HepG2 [7]) of the same molecule?
The Activity was “Tde”.

And the Activity [8]?
Its Activity is “Non-Toxic”.

What about the Activity [9] of the same molecule?
The Activity was “Dose-dependent effect”.

And the inhibition in vivo at 10 mg/kg (HepG2 [10])?
The inhibition in vivo at 10 mg/kg was 27.2%.
